# Reference: patent publication US8871753B2, “Macrocyclic compounds and their use as kinase inhibitors” (Incyte Corporation, priority 2008, dated 2014)
# Counter-ions that a name gives are not always drawn. Like-named read-outs stand apart in the source and are kept apart here.
# Legend:
# Type in all cases: biochemical
# [1] = target: T1, human JAK1 (a.a. 837-1142) (Homo sapiens, UniProt P23458); assay: In vitro JAK kinase assay (HTRF, phosphorylation of a biotinylated peptide), JAK1; conditions: read-out: JAK1 IC50
# T1 construct: human JAK1 (a.a. 837-1142); His tag (N); made in house; host or cells: insect cells (baculovirus)
# T1 sequence (P23458 849-1154): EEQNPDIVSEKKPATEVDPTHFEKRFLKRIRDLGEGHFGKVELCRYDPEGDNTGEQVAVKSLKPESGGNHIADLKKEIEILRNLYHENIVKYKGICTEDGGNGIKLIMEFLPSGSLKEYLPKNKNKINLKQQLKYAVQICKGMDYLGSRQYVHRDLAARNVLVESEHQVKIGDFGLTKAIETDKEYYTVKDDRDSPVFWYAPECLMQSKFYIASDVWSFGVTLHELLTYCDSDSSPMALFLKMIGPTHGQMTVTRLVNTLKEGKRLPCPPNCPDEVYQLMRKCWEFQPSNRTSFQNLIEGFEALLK
# Summary of the method: (§1)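 Phosphorylation of a biotinylated peptide by the JAK kinase domain, detected by HTRF with Eu-Py20 and SA-APC. ATP was 90 μM for JAK1, 30 μM for JAK2 and 3 μM for JAK3. Reactions ran 1 h at room temperature and were stopped with EDTA, followed by 40 min antibody binding.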
# [2] = target: T2, human JAK2 (a.a. 828-1132) (Homo sapiens, UniProt O60674); assay: In vitro JAK kinase assay (HTRF, phosphorylation of a biotinylated peptide), JAK2
# T2 construct: JAK2 (a.a. 828-1132); His tag (N); made in house; host or cells: insect cells (baculovirus)
# T2 sequence (O60674 828-1132): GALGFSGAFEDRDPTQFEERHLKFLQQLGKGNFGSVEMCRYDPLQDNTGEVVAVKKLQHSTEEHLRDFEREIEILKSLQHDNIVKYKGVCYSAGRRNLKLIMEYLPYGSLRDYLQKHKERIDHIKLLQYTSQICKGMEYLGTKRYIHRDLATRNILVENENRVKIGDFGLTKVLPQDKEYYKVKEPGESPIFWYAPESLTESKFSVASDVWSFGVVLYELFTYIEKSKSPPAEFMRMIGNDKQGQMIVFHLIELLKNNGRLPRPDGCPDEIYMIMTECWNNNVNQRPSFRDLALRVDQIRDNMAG
# Summary of the method: as §1
# [3] = target: T3, human JAK3 (a.a. 781-1124) (Homo sapiens, UniProt P52333); assay: In vitro JAK kinase assay (HTRF, phosphorylation of a biotinylated peptide), JAK3
# T3 construct: JAK3 (a.a. 781-1124); His tag (N); made in house; host or cells: insect cells (baculovirus)
# T3 sequence (P52333 781-1124): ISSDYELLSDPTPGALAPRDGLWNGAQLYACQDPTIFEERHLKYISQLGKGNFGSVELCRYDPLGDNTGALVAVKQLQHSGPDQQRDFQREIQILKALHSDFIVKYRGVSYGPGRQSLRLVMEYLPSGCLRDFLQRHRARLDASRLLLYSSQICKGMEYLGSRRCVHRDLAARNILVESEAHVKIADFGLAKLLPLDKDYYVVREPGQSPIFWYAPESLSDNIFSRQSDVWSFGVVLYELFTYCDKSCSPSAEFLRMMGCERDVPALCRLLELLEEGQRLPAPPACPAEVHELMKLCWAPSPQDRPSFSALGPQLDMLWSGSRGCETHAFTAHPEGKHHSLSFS
# Summary of the method: as §1
# TYK2 = TYK2 (Homo sapiens, UniProt P29597); assay: TYK2 kinase inhibition (Table A1)
# Sequence of TYK2 (P29597 whole entry): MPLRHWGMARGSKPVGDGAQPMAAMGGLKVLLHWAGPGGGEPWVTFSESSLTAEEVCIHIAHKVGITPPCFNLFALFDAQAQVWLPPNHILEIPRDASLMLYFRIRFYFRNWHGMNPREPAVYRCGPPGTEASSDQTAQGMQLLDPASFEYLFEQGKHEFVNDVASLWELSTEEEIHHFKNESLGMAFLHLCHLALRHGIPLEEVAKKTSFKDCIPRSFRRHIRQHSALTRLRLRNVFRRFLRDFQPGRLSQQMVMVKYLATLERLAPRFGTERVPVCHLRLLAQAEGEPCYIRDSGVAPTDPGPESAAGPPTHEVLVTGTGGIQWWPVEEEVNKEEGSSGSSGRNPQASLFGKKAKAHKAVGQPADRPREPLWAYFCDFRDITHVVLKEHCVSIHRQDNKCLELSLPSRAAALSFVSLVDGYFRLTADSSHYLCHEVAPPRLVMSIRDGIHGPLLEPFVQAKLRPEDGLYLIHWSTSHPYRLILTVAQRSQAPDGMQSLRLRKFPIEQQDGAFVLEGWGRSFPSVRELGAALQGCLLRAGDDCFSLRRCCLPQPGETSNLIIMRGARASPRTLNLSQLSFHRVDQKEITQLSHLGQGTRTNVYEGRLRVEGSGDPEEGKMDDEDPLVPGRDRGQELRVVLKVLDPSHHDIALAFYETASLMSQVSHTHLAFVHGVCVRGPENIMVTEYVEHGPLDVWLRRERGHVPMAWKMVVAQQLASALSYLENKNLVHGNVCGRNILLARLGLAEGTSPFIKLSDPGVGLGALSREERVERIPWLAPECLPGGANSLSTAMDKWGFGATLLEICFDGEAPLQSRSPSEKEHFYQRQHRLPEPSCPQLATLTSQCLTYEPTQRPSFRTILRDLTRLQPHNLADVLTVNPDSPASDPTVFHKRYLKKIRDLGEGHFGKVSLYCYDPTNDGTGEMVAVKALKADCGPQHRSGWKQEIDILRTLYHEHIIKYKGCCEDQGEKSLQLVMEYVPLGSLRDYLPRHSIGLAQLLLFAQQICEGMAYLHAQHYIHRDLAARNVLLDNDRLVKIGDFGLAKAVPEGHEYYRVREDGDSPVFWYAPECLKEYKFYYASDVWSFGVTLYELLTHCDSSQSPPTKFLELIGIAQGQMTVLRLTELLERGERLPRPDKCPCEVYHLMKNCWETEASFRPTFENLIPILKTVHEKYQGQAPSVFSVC
# [4] = target: T4, Recombinant Human Anaplastic Lymphoma Kinase (Homo sapiens, UniProt Q9UM73); assay: ALK HTRF kinase assay
# T4 construct: purchased Invitrogen, Carlsbad, Calif
# T4 sequence (Q9UM73 19-1620): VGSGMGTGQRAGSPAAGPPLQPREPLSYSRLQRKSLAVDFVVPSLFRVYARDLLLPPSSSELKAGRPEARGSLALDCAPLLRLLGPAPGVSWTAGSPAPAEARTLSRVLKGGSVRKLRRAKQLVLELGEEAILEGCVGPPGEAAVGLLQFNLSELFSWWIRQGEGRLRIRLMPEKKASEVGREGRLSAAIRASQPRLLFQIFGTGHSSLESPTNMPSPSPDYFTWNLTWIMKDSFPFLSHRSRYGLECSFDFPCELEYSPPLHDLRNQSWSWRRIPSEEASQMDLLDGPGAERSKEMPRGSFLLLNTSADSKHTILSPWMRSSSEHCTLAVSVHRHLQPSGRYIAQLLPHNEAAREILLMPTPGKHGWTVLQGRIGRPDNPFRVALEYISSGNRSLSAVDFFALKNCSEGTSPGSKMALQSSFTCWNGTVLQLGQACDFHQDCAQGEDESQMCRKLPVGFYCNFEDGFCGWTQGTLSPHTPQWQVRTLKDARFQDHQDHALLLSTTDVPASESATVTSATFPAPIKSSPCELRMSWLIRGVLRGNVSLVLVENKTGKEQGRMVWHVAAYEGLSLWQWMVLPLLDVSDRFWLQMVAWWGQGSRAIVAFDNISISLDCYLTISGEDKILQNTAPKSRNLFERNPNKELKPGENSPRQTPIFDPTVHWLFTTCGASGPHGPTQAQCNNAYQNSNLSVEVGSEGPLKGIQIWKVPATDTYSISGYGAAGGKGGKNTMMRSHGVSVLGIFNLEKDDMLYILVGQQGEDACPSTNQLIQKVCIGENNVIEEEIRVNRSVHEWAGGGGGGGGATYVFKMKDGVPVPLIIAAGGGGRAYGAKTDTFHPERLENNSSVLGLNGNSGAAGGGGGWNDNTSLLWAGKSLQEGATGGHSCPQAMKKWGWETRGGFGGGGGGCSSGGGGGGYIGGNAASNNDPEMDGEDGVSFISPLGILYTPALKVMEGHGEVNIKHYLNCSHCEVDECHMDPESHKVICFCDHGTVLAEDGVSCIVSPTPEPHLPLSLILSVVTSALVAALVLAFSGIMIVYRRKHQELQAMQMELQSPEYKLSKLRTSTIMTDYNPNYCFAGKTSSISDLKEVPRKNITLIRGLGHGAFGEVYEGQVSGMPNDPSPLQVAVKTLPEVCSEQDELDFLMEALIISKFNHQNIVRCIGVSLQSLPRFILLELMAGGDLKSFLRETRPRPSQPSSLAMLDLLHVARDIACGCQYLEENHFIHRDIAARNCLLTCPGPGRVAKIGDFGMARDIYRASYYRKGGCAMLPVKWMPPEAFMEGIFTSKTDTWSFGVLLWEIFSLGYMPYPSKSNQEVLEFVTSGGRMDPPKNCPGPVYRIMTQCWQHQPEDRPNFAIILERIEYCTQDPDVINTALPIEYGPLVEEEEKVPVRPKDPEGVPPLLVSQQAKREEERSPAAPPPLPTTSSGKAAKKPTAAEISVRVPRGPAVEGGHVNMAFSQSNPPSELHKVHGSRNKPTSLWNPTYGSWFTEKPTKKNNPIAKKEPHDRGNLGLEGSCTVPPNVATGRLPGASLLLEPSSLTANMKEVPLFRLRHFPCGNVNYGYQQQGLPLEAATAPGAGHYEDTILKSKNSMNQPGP
# Summary of the method: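 TR-FRET read-out (Eu anti-pTyr antibody + streptavidin-APC) of biotin-peptide phosphorylation by recombinant human enzyme; IC50 by sigmoidal fit with top/bottom baselines and Hill slope.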
# [5] = method AA1 (90 μM ATP) or AA2 (1000 μM ATP), not stated per value
# [6] = method AA1 (30 μM ATP) or AA2 (1000 μM ATP), not stated per value
# [7] = method AA1 (3 μM ATP) or AA2 (1000 μM ATP), not stated per value
# [8] = compound at 500 nM or 1 mM, 90 μM ATP
# [9] = percentage inhibition of the example compound at a concentration of 500 nM or 1 mM (not specified which)
# [10] = Table B1, cells without percent sign
SMILES,"IC50 [1, 5]","IC50 [2, 6]","IC50 [3, 7]",IC50 (TYK2),"ALK % of inhibition at a concentration of 500 nM or 1 mM [4, 8]",IC50 ([1]; Table B1),IC50 ([2]; Table B1),IC50 ([3]; Table B1),IC50 (TYK2; Table B1),also measured
"N#Cc1cccc(S(=O)(=O)N2CCC(CC(=O)Nc3ccc4cc3CCc3cncc(c3)Nc3ncc(Cl)c(n3)N4)CC2)c1 [Example A228, N-[6-Chloro-2,4,8,18,22-pentaazatetracyclo[14.3.1.1(3,7).1(9,13)]docosa-1(20),3(22),4,6,9(21),10,12,16,18-nonaen-12-yl]-2-{1-[(3-cyanophenyl)sulfonyl]piperidin-4-yl}acetamide bis(trifluoroacetate)]",6.9 nM,114 nM,> 400 nM,109 nM,62%,,,,,
"Cn1ccc(S(=O)(=O)NCCNC(=O)Nc2ccc3cc2CCc2cccc(c2)Nc2ncc(Cl)c(n2)N3)n1 [Example B332, N-{2-[({[6-chloro-2,4,8,22-tetraazatetracyclo[14.3.1.1(3,7).1(9,13)]docosa-1(20),3(22),4,6,9(21),10,12,16,18-nonaen-12-yl]amino}carbonyl)amino]ethyl}-1-methyl-1H-pyrazole-3-sulfonamide trifluoroacetate]",,,,,,3 nM,3.4 nM,26 nM,8.2 nM,"ALK % of inhibition at a concentration of 500 nM or 1 mM [4, 9]: 23%"
"Cn1cnc(S(=O)(=O)N2CCC(CC(=O)Nc3ccc4cc3CCc3cncc(c3)Nc3ncc(Cl)c(n3)N4)CC2)c1 [Example A229, N-[6-Chloro-2,4,8,18,22-pentaazatetracyclo[14.3.1.1(3,7).1(9,13)]docosa-1(20),3(22),4,6,9(21),10,12,16,18-nonaen-12-yl]-2-{1-[(1-methyl-1H-imidazol-4-yl)sulfonyl]piperidin-4-yl}acetamide bis(trifluoroacetate)]",8 nM,75 nM,> 400 nM,120 nM,55%,,,,,
"Clc1ccc(CN2CCN(Cc3cc4cc(c3)Nc3nc(ncc3Cl)Nc3cccc(c3)CC4)CC2)cc1 [Example B199, 6-Chloro-11-{[4-(4-chlorobenzyl)piperazin-1-yl]methyl}-2,4,8,22-tetraazatetracyclo[14.3.1.1(3,7).1(9,13)]docosa-1(20),3(22),4,6,9(21),10,12,16,18-nonaene tris(trifluoroacetate)]",,,,,,4.9 nM,2.7 nM,64 nM,154 nM,"IC50 [4, 10]: > 1000 nM"
"N#Cc1cccc(C(=O)N2CCC(CC(=O)Nc3ccc4cc3CCc3cccc(c3)Nc3ncc(Cl)c(n3)N4)CC2)c1 [Example A187, N-[6-Chloro-2,4,8,22-tetraazatetracyclo[14.3.1.1(3,7).1(9,13)]docosa-1(20),3(22),4,6,9(21),10,12,16,18-nonaen-12-yl]-2-[1-(3-cyanobenzoyl)piperidin-4-yl]acetamide trifluoroacetate]",52 nM,132 nM,> 200 nM,> 200 nM,37%,,,,,
"O=C(CC1CCN(C(=O)c2cnoc2C2CC2)CC1)Nc1ccc2cc1CCc1cncc(c1)Nc1ncc(Cl)c(n1)N2 [Example A213, N-[6-Chloro-2,4,8,18,22-pentaazatetracyclo[14.3.1.1(3,7).1(9,13)]docosa-1(20),3(22),4,6,9(21),10,12,16,18-nonaen-12-yl]-2-{1-[(5-cyclopropylisoxazol-4-yl)carbonyl]piperidin-4-yl}acetamide bis(trifluoroacetate)]",58 nM,> 200 nM,> 200 nM,> 200 nM,27%,,,,,
"Cc1noc(C)c1C(=O)N1CCC(C(=O)Nc2ccc3cc2CCc2cccc(c2)Nc2ncc(Cl)c(n2)N3)CC1 [Example A34, N-[6-Chloro-2,4,8,22-tetraazatetracyclo[14.3.1.1(3,7).1(9,13)]docosa-1(20), 3(22),4,6,9(21),10,12,16,18-nonaen-12-yl]-1-[(3,5-dimethylisoxazol-4-yl)carbonyl]piperidine-4-carboxamide trifluoroacetate]",446 nM,220 nM,> 1000 nM,343 nM,5%,,,,,
"CN(Cc1ccc2cc1CCc1cncc(c1)Nc1ncc(Cl)c(n1)N2)C(=O)C1CCN(C(=O)c2ccno2)CC1 [Example B336, N-{[6-Chloro-2,4,8,18,22-pentaazatetracyclo[14.3.1.1(3,7).1(9,13)]docosa-1(20),3(22),4,6,9(21),10,12,16,18-nonaen-12-yl]methyl}-1-(isoxazol-5-ylcarbonyl)-N-methylpiperidine-4-carboxamide bis(trifluoroacetate)]",,,,,,52 nM,140 nM,> 200 nM,> 200 nM,"ALK % of inhibition at a concentration of 500 nM or 1 mM [4, 9]: 11%"
"O=C(Nc1ccc2cc1CCc1cncc(c1)Nc1ncc(Cl)c(n1)N2)N1CCN(c2cnccn2)CC1 [Example B294, N-[6-Chloro-2,4,8,18,22-pentaazatetracyclo[14.3.1.1(3,7).1(9,13)]docosa-1(20),3(22),4,6,9(21),10,12,16,18-nonaen-12-yl]-4-pyrazin-2-ylpiperazine-1-carboxamide tetrakis(trifluoroacetate)]",,,,,,19 nM,150 nM,> 200 nM,85 nM,"ALK % of inhibition at a concentration of 500 nM or 1 mM ([4]; compound at a concentration of 500 nM or 1 mM (not specified), cells shown as percentage): 54%"
"O=S(=O)(Nc1cc2cc(c1)Nc1nc(ncc1Cl)Nc1cccc(c1)CC2)c1ccccc1 [Example B203, N-[6-Chloro-2,4,8,22-tetraazatetracyclo[14.3.1.1(3,7).1(9,13)]docosa-1(20),3(22),4,6,9(21),10,12,16,18-nonaen-11-yl]benzenesulfonamide trifluoroacetate]",,,,,,44 nM,19 nM,102 nM,34 nM,"IC50 [4, 10]: > 10000 nM"
"O=C(CC1CCN(C(=O)Nc2cccnc2)CC1)Nc1ccc2cc1CCc1cncc(c1)Nc1ncc(Cl)c(n1)N2 [Example A144, 4-(2-{[6-Chloro-2,4,8,18,22-pentaazatetracyclo[14.3.1.1(3,7).1(9,13)]docosa-1(20),3(22),4,6,9(21),10,12,16,18-nonaen-12-yl]amino}-2-oxoethyl)-N-pyridin-3-ylpiperidine-1-carboxamide bis(trifluoroacetate)]",1.2 nM,6.4 nM,> 100 nM,11 nM,35%,,,,,
"O=C(COc1ccc2cc1CCc1cccc(c1)Nc1ncc(Cl)c(n1)N2)Nc1ccccc1 [Example A18, 2-{[6-Chloro-2,4,8,22-tetraazatetracyclo[14.3.1.1(3,7).1(9,13)]docosa-1(20),3(22),4,6,9(21),10,12,16,18-nonaen-12-yl]oxy}-N-phenylacetamide trifluoroacetate]",4.5 nM,3.3 nM,23 nM,11 nM,59%,,,,,
"N#Cc1cccnc1N1CCC(CC(=O)Nc2ccc3cc2CCc2cncc(c2)Nc2ncc(Cl)c(n2)N3)CC1 [Example A177, N-[6-Chloro-2,4,8,18,22-pentaazatetracyclo[14.3.1.1(3,7).1(9,13)]docosa-1(20),3(22),4,6,9(21),10,12,16,18-nonaen-12-yl]-2-[1-(3-cyanopyridin-2-yl)piperidin-4-yl]acetamide tris(trifluoroacetate)]",14 nM,95 nM,> 200 nM,> 200 nM,34%,,,,,
"Nc1nc(C(=O)N2CCC(CC(=O)Nc3ccc4cc3CCc3cncc(c3)Nc3ncc(Cl)c(n3)N4)CC2)cs1 [Example A217, 2-{1-[(2-Amino-1,3-thiazol-4-yl)carbonyl]piperidin-4-yl}-N-[6-chloro-2,4,8,18,22-pentaazatetracyclo[14.3.1.1(3,7).1(9,13)]docosa-1(20),3(22),4,6,9(21),10,12,16,18-nonaen-12-yl]acetamide tris(trifluoroacetate)]",4.2 nM,68 nM,> 200 nM,55 nM,23%,,,,,
"[O-][S+]1CCOc2cccc(c2)Nc2ncc(Cl)c(n2)Nc2cccc1c2 (stereo not drawn) [Example D13, 6-Chloro-17-oxa-14-thia-2,4,8,24-tetraazatetracyclo[16.3.1.1(3,7).1(9,13)]tetracosa-1(22),3(24),4,6,9(23),10,12,18,20-nonaene 14-oxide trifluoroacetate]",,,,,,,,,,"IC50 ([1]; Table D1): 3.6 nM; IC50 ([2]; Table D1): 2.1 nM; IC50 ([3]; Table D1): 24 nM; IC50 (TYK2; Table D1): 12 nM; IC50 ([4]; Table D1, 90 μM ATP): 1740 nM"
